Test systems include BT-549; UACC-257; IGROV-1; MDA-N; RPMI-8226; HOP-62; U-251; Malme-3M; OVCAR-5; K562; MCF7; HCC 2998; MDA-MB-435; OVCAR-8; SN12C; KM12; HCT-116; PC-3; SK-MEL-5; NCI/ADR-RES.
Experiment in all cases: DTP human tumour cell line panel, 48 h

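1) Cells in 96-well plates. 2) Compound, 48 h, 5 concentrations. 3) Linear interpolation between surrounding doses. 4) Unreached endpoint = highest concentration. The concentration for 50% growth inhibition is given as GI50.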 Active and inactive are the calls of the source. Rule as the data show it: active = GI50 up to about 1.1 µM and inactive = higher. Some results are limits rather than exact numbers.

For `Cc1ccc(O)c(C2=CC3=NNC(=O)C3C(c3cccc(Cl)c3)C2)c1` (stereo not given), the GI50 in the assay on BT-549 is 26.7 µM (inactive); in the assay with UACC-257, 64.3 µM (inactive); in the assay with IGROV-1, 31.2 µM (inactive); in the assay with MDA-N it was 29.5 µM (inactive); in the assay on RPMI-8226, 24.4 µM (inactive); in the assay on HOP-62, 58.9 µM (inactive). The GI50 in the assay on U-251 was 35.5 µM (inactive); in the assay with Malme-3M it was 35.3 µM (inactive); with OVCAR-5, 51.6 µM (inactive); with K562 it was 37.1 µM (inactive); in the assay on MCF7, 17.7 µM (inactive); with HCC 2998 it was 20.7 µM (inactive). Besides, the GI50 in the assay on MDA-MB-435 was 32.7 µM (inactive); with OVCAR-8, 26.2 µM (inactive); in the assay on SN12C it was 32.5 µM (inactive); with KM12, 21.8 µM (inactive); in the assay with HCT-116, 30.9 µM (inactive); with PC-3, 40.6 µM (inactive). The GI50 was 32.1 µM (inactive) in the assay with SK-MEL-5 and 50.4 µM (inactive) in the assay with NCI/ADR-RES.
Regarding `Oc1cc(Br)cc2cccnc12`, the GI50 in the assay on BT-549 is 5.15 µM (inactive); in the assay with UACC-257, 2.6 µM (inactive); with IGROV-1 it was 1.71 µM (inactive); with MDA-N, 8.28 µM (inactive); in the assay on RPMI-8226, 1.31 µM (inactive); in the assay with HOP-62 it was 5.31 µM (inactive). In addition, the GI50 in the assay with U-251 is 1.58 µM (inactive); in the assay on Malme-3M, 3.05 µM (inactive); in the assay on OVCAR-5, 5.12 µM (inactive); with K562, 0.82 µM (active); in the assay on MCF7 it was 0.964 µM (active); with HCC 2998 it was 28.2 µM (inactive). The GI50 is 7.29 µM (inactive) in the assay on MDA-MB-435; 1.29 µM (inactive) in the assay on OVCAR-8; 2.1 µM (inactive) in the assay on SN12C; 4.7 µM (inactive) in the assay on KM12; 1.78 µM (inactive) in the assay with HCT-116; 3.17 µM (inactive) with PC-3. The GI50 in the assay on SK-MEL-5 was 2.38 µM (inactive); in the assay with NCI/ADR-RES it was 1.25 µM (inactive).
Regarding `CCOc1ccc(C2Oc3c(cccc3OC)C=C2[N+](=O)[O-])cc1OCC` (stereo not given), the GI50 is 5.96 µM (inactive) with BT-549; 3.66 µM (inactive) with UACC-257; 4.92 µM (inactive) with IGROV-1; 2.04 µM (inactive) in the assay with MDA-N; 2.27 µM (inactive) with RPMI-8226; 12.6 µM (inactive) in the assay on HOP-62. Besides, the GI50 was 6.49 µM (inactive) in the assay with U-251; 2.3 µM (inactive) in the assay on Malme-3M; 9.59 µM (inactive) in the assay with OVCAR-5; 1.87 µM (inactive) in the assay on K562; 3.52 µM (inactive) with MCF7; 20.7 µM (inactive) in the assay with HCC 2998. The GI50 in the assay with MDA-MB-435 was 2.82 µM (inactive); with OVCAR-8, 2 µM (inactive); in the assay with SN12C, 10.8 µM (inactive); with KM12, 5.43 µM (inactive); in the assay on HCT-116, 1.5 µM (inactive); with PC-3, 9.33 µM (inactive). Further, the GI50 is 4.8 µM (inactive) with SK-MEL-5 and 3.15 µM (inactive) in the assay with NCI/ADR-RES.
On to `CC(C)(C)OC(=O)N/C=C1\C(=O)Oc2ccccc2C1=O`, for which the GI50 in the assay with BT-549 was 33.7 µM (inactive); in the assay on UACC-257, 31.3 µM (inactive); in the assay on IGROV-1, 42.5 µM (inactive); with MDA-N it was 34.5 µM (inactive); with RPMI-8226, > 100 µM (inactive); in the assay with HOP-62, 17.1 µM (inactive). The GI50 with U-251 is 19.8 µM (inactive); in the assay with Malme-3M, 31.3 µM (inactive); with OVCAR-5 it was 46.8 µM (inactive); with K562 it was > 100 µM (inactive); in the assay on MCF7, 70.8 µM (inactive); in the assay with HCC 2998, 54 µM (inactive). Moreover, the GI50 with MDA-MB-435 is 39.2 µM (inactive); in the assay on OVCAR-8, 40.6 µM (inactive); in the assay with SN12C, 24.5 µM (inactive); in the assay with KM12 it was 37.9 µM (inactive); in the assay with HCT-116, 36 µM (inactive); in the assay on PC-3, 32.3 µM (inactive). Moreover, the GI50 with SK-MEL-5 is 26.1 µM (inactive); in the assay on NCI/ADR-RES, 41.4 µM (inactive).
For the compound `CCOC(=O)C(=C(SC)SC)c1nn2c(=O)cc(C)nc2s1`, the GI50 with BT-549 was 18.2 µM (inactive); with UACC-257 it was 23.9 µM (inactive); in the assay on IGROV-1, 20.9 µM (inactive); with MDA-N, 16.4 µM (inactive); in the assay on RPMI-8226, 17.3 µM (inactive); in the assay on HOP-62, > 100 µM (inactive). The GI50 in the assay with U-251 was 23.6 µM (inactive); in the assay on Malme-3M, 15.9 µM (inactive); in the assay on OVCAR-5, 28.4 µM (inactive); with K562 it was 19.2 µM (inactive); in the assay on MCF7, 20.5 µM (inactive); in the assay with HCC 2998, 18.8 µM (inactive). The GI50 in the assay on MDA-MB-435 was 16.6 µM (inactive); with OVCAR-8, 23.8 µM (inactive); in the assay on SN12C, 33.1 µM (inactive); in the assay with KM12, 33 µM (inactive); in the assay on HCT-116 it was 16.4 µM (inactive); in the assay on PC-3, 23.3 µM (inactive). For the same compound, the GI50 in the assay with SK-MEL-5 is 22 µM (inactive); in the assay with NCI/ADR-RES, 36.5 µM (inactive).
Turning to `CC1(/C=C/CCSc2ccccc2)CC(=O)C2CC1C2(C)C` (stereo not given), the GI50 in the assay with BT-549 is 9.18 µM (inactive); in the assay on UACC-257 it was 14.7 µM (inactive); in the assay with IGROV-1 it was 17.8 µM (inactive); in the assay with MDA-N it was 26.9 µM (inactive); in the assay with RPMI-8226, 3.79 µM (inactive); in the assay on HOP-62, 36.9 µM (inactive). In addition, the GI50 in the assay with U-251 was 14.9 µM (inactive); with Malme-3M, 21.3 µM (inactive); with OVCAR-5, 44.9 µM (inactive); with K562, 5.79 µM (inactive); with MCF7, 22.6 µM (inactive); in the assay with HCC 2998 it was 12.5 µM (inactive). Further, the GI50 in the assay with MDA-MB-435 was 19.3 µM (inactive); with OVCAR-8, 22.3 µM (inactive); in the assay with SN12C, 19.1 µM (inactive); in the assay on KM12, 13.2 µM (inactive); in the assay with HCT-116, 13 µM (inactive); in the assay with PC-3, 6.08 µM (inactive). In addition, the GI50 with SK-MEL-5 is 8.71 µM (inactive); with NCI/ADR-RES, 11 µM (inactive).
Consider `CC1(C)C2CCC(O)(C2)C1N` (stereo not given), for which the GI50 in the assay on BT-549, with UACC-257, in the assay on IGROV-1, in the assay with MDA-N, with RPMI-8226 and in the assay with HOP-62 was > 100 µM (inactive) in each case. Further, the GI50 with U-251, in the assay on Malme-3M, in the assay on OVCAR-5, in the assay on K562, in the assay on MCF7 and in the assay on HCC 2998 was > 100 µM (inactive) throughout. The GI50 with MDA-MB-435, in the assay on OVCAR-8, in the assay on SN12C, with KM12, with HCT-116 and with PC-3 was > 100 µM (inactive) in each case. The GI50 in the assay with SK-MEL-5 and in the assay on NCI/ADR-RES was > 100 µM (inactive) each time.
Turning to `Cn1c2ccccc2c(=O)c2cccc(C(=O)NC(CS)C(=O)O)c21` (stereo not given), the GI50 with BT-549 is > 100 µM (inactive); in the assay with UACC-257, > 100 µM (inactive); with IGROV-1 it was > 100 µM (inactive); in the assay with MDA-N, > 100 µM (inactive); with RPMI-8226, 26.5 µM (inactive); in the assay with HOP-62, > 100 µM (inactive). For the same compound, the GI50 in the assay with U-251 is > 100 µM (inactive); in the assay with Malme-3M it was > 100 µM (inactive); with OVCAR-5, > 100 µM (inactive); with K562, 52.1 µM (inactive); in the assay on MCF7, 40.9 µM (inactive); with HCC 2998, > 100 µM (inactive). Further, the GI50 was > 100 µM (inactive) in the assay with MDA-MB-435; > 100 µM (inactive) in the assay with OVCAR-8; > 100 µM (inactive) with SN12C; > 100 µM (inactive) in the assay on KM12; 68.9 µM (inactive) with HCT-116; > 100 µM (inactive) with PC-3. In addition, the GI50 with SK-MEL-5 is > 100 µM (inactive); with NCI/ADR-RES, 23.6 µM (inactive).
For `Cc1ccc(S(=O)(=O)N2CCCC2C(=O)O[C@H]2CC[C@H]3CC=C[C@H]32)cc1` (stereo not given in full), the GI50 was 47.4 µM (inactive) in the assay on BT-549; 23.8 µM (inactive) with UACC-257; 41.3 µM (inactive) in the assay with IGROV-1; > 69.8 µM (inactive) in the assay on MDA-N; 17.1 µM (inactive) in the assay on RPMI-8226; 45.4 µM (inactive) in the assay on HOP-62. The GI50 was 45.4 µM (inactive) with U-251; 47.1 µM (inactive) with Malme-3M; > 100 µM (inactive) in the assay with OVCAR-5; 14.9 µM (inactive) in the assay with K562; 26.4 µM (inactive) in the assay on MCF7; 67.6 µM (inactive) in the assay on HCC 2998. For the same compound, the GI50 in the assay on MDA-MB-435 was 80.2 µM (inactive); in the assay on OVCAR-8, 31.8 µM (inactive); in the assay on SN12C, 27.8 µM (inactive); with KM12, > 100 µM (inactive); in the assay with HCT-116, 19.1 µM (inactive); with PC-3 it was 25 µM (inactive). Moreover, the GI50 is 19.1 µM (inactive) with SK-MEL-5 and 24.5 µM (inactive) with NCI/ADR-RES.
With `C[C@H]1C(OCCOC2O[C@@H]3O[C@@]4(C)CC[C@H]5[C@H](C)CCC([C@H]2C)[C@@]35O4)O[C@@H]2O[C@@]3(C)CC[C@H]4[C@H](C)CCC1[C@@]24O3` (stereo not given in full), the GI50 in the assay with BT-549 is 95.7 µM (inactive); with UACC-257 it was 33.1 µM (inactive); with IGROV-1, 24.8 µM (inactive); with MDA-N, 38.7 µM (inactive); in the assay with RPMI-8226, 58.6 µM (inactive); in the assay with HOP-62 it was 37.7 µM (inactive). In addition, the GI50 in the assay with U-251 is 40.9 µM (inactive); in the assay with Malme-3M it was 15.8 µM (inactive); in the assay on OVCAR-5 it was 50.7 µM (inactive); in the assay on K562 it was > 100 µM (inactive); in the assay on MCF7, 37 µM (inactive); in the assay with HCC 2998, 21.6 µM (inactive). Also, the GI50 in the assay on MDA-MB-435 was 38.4 µM (inactive); in the assay with OVCAR-8, 5.3 µM (inactive); in the assay with SN12C, 21 µM (inactive); in the assay on KM12, 27.5 µM (inactive); in the assay with HCT-116, 21 µM (inactive); in the assay with PC-3 it was 28.5 µM (inactive). The GI50 is 15.3 µM (inactive) in the assay on SK-MEL-5 and 25.1 µM (inactive) in the assay with NCI/ADR-RES.

As usually defined, the GI50 is the concentration that inhibits growth by half.

The values are drawn from ChEMBL document CHEMBL1201862, “PubChem BioAssay data set” (2004).
